How the values were obtained:
[1] = Neurotoxicity in rats, positional sense test and gait stance test; conditions: rat, in vivo, po
Description: (§1) Neurotoxicity of the claimed agents was also assessed in mice (i.p. administration) by the rotorod ataxia test and/or in rats (p.o. administration) by positional sense test and gait stance test. […] The term quantitating the neurotoxicity is the medial neurological toxic dose (TD50), was determined in the above tests.

in vivo = conditions: mouse, in vivo, ip
Description: as §1

mice = test: Maximal electroshock (MES) model, mice; conditions: Mus musculus, ip, read-out: MICE MES ED50
rats [2] = test: Maximal electroshock (MES) model, rats; conditions: Rattus norvegicus, po, read-out: RATS MES 50
MAO-B = target: T1, MAO-B (Rattus norvegicus, UniProt P19643); conditions: RAI: only chronic treatment; deprenyl: acute or chronic treatment
T1 sequence (P19643 1-520): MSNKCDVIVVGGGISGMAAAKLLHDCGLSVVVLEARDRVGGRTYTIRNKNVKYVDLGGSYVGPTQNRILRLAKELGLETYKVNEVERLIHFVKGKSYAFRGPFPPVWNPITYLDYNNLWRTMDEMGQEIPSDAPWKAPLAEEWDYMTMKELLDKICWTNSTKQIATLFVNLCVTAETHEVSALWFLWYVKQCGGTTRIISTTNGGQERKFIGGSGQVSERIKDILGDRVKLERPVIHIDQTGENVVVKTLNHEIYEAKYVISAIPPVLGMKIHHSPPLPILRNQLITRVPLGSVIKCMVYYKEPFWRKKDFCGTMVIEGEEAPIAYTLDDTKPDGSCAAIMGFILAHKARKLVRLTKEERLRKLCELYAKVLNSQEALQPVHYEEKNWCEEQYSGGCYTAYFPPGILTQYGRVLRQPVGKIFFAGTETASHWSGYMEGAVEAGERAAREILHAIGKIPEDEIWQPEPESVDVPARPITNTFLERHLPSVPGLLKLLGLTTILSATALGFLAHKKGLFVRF
Excerpt: (§2) The brains of some rats from each experimental group in Exp. 1 (chronic treatment of 80 days) and Exp. 2 (acute treatment of 14 days) were ex vivo analyzed for MAO-A and MAO-B activity.

MAO-A = target: T2, MAO-A (Rattus norvegicus, UniProt P21396); conditions: chronic or acute treatment
T2 sequence (P21396 1-526): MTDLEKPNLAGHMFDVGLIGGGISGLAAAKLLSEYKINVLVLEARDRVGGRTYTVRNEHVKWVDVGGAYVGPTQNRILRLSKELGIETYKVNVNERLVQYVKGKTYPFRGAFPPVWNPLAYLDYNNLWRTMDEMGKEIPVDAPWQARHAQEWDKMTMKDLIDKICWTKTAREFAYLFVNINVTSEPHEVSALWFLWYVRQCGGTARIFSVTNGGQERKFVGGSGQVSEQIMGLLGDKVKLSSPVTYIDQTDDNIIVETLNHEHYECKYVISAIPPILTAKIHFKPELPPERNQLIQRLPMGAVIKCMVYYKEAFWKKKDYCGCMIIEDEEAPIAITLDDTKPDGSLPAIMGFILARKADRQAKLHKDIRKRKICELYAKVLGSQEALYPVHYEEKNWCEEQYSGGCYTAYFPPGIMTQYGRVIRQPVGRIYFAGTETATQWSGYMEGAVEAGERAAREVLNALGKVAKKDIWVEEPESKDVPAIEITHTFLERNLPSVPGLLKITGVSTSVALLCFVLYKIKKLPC
Excerpt: as §2

rats [3] = test: Closed head injury in rats, Experiment 4E (therapeutic window); format: in vivo, rat; conditions: 1 mg/kg
Description: (§3) After the second evaluation of motor function, the animals were sacrificed and the brains were removed. A piece of tissue was weighed to yield a wet weight (WW), then dried in an oven for 24 hours at 95 C. and re-weighed to yield a dry weight(DW). Percentage water content in the tissue was calculated as (WW-DW)×100/WW.

rats [4] = test: Closed head injury in rats, Experiment 4C (dose range); format: in vivo, rat; conditions: doses 0.03 mg/kg to 3 mg/kg
Description: as §3

hypoxic rat [5] = test: α-MpT-induced hypokinesia in hypoxic rat, Experiment 1A; format: in vivo; conditions: hypoxia group, ten hour observation
Description: Wistar male rats, 15-19 month-old, were exposed to a single hypoxic episode which is assumed to decrease the level of dopamine in the brain. […] The drugs were administered by gavage, using a special syringe equipped with rounded tip that could be directed into the stomach. The dose was contained in 0.3-0.5 mL of distilled water. The rats were pretreated for 70-80 days with daily doses of the test drugs and received intra-peritoneal (i.p.) α-MpT (α-methyl-p-tyrosine) at a dose of 100 mg/kg in 0.3-0.5 mL saline. Controls received saline. α-MpT is assumed to inhibit the formation of L-Dopa from tyrosine and, consequently the formation of dopamine itself. Lack of central dopamine is expressed as hypokinesia. Following the injection of α-MpT, motor activity was recorded for the duration of 10 hours. Locomotion scores were taken in seven fully-computerized cages (26×25 cm) having a grid of infra-red beams at 4 cm-intervals.
Crossing of a beam initiated an electric signal which was fed into a computer. The number of crossings over a given period provided a measure of locomotion.
The records gave two data categories: (a) “small movements” originating in stationary activities such as grooming and scratching and (b) “big movements” originating in ambulation and recorded as the simultaneous crossing of more than two beams. “Total movements” include both categories.
Counts of motor activity in the presence of α-MpT were related as percent with respect to counts in its absence in the corresponding control group (unlesioned or hypoxia-lesioned). Motor activity counts of drug-treated rats were related to the hypoxia saline-treated as 100%. All behavioral tests were performed 90-120 min. after administration of the last dose of the test compound.

hypoxic rat [6] = test: Amphetamine-induced stereotype behavior in hypoxic rat, Experiment 2A; format: in vivo; conditions: hypoxic group, with respect to hypoxia and amphetamine control
Description: (§4) Wistar male rats, 15-19 month-old, were exposed to a single hypoxic episode as described above. […] Rats pretreated for 29 days with daily doses of the test drugs (0.5 mg/kg), received a sub-cutaneous (s.c.) injection of D-amphetamine sulfate at a dose of 0.5 mg/kg. D-amphetamine is known to cause an enhancement of the effects of CNS dopamine by a mechanism involving dopamine release, and blockage of its uptake and its metabolism by MAO. The behavioral manifestation of amphetamine action is a stereotypic pattern of lateral head movements. Counts of lateral head movements were taken over two successive intervals of 1 min each, 45-60 min after the injection of amphetamine and then averaged.

hypoxic rat [7] = test: Passive avoidance test in hypoxic rat, Experiment 3A; format: in vivo; conditions: hypoxic rats
Description: Wistar male rats, 15-19 month-old, were exposed to a single hypoxic episode as described above. […] The passive avoidance test was performed on day 13 after initiation the drug treatment. The apparatus consisted of a lit chamber that can be separated from a dark chamber by a sliding door. At training, a rat is placed in the lit chamber for 30 seconds, then the door is opened. The rat moves to the dark chamber after a short delay—the latency, that is recorded. Upon entry into the dark chamber, the door is shut closed and a 0.3-mA footshock is delivered for 3 seconds by a Grass S-88 stimulator. Retention of the experience is determined after 48 hours by repeating the test and recording the latency to an arbitrary maximum of 300 seconds. Longer latencies are ascribed to retention of memory and improved cognition.

rats [8] = test: Closed head injury in rats, Experiment 4D (times of administration); format: in vivo, rat; conditions: RAI 1 mg/kg; times of administration: 0, 4, 8, 12 h
Description: as §3

hypoxia-lesioned rats = test: Water maze working memory test, Experiment 3B; format: in vivo, rat; conditions: rat, in vivo
Excerpt: The apparatus used consists of a circular water tank 160 cm in diameter filled with water to a depth of 38 cm. The water was made cloudy by the addition of milk powder. A clear Plexiglass 15 cm platform, supported by a movable stand rest on the bottom of the tank was submerged to a depth of 2 cm from the water surface. Normally a swimming rat cannot perceive the location of the platform but it may recall it from a previous experience and training, unless it suffers from some memory impairment. The time taken to locate the platform is measured in seconds and referred to as the latency. During the experiment all orientational cues such as ceiling lights etc. remained unchanged. Longer latencies are observed with rats with some impairment to their memory.
Each rat was given two trails a day for four days, entering the pool from the same point of entry each day. The position of the platform was changed daily to one of four predetermined positions. Each rat was tested twice each day over the four days, referred to as runs 1 and 2 on sessions I-IV. Initially the rat was placed on the platform for 60 seconds. It was then removed and placed at the point of entry and allowed a maximum of 120 seconds to locate the platform (run 1). The second run for that day followed 60 seconds later (run 2). In the second run the rat is expected to find the platform much sooner, having benefitted from its earlier experience. […] The average latency of run 1 in four sessions on four different days was then related to the corresponding parameter of run 2. The smaller the ratio of […], the better the short range learning score.
Table 8. […] The data are the latencies in seconds±SEM that it took a given group to locate a submerged and invisible platform the location of which was shifted from one session to the other. The time interval between sessions was one day, and that between successive runs was 60 seconds. (n=7-8 rats per group)

hypoxic rat [9] = test: Amphetamine-induced stereotype behavior in hypoxic rat, Experiment 2B; format: in vivo
Description: as §4
The procedure of the second Experiment 2B was similar to the one used in Experiment 2A with the following changes:
1) Animals: 12 month-old rats.
The drugs were given by i.p. injection.
3) Duration of the treatment: 14 days.

SMILES | TD50 [1] [mg/kg] | melting point [°C] | TD50 (in vivo) [mg/kg] | ED50 (mice) [mg/kg] | ED50 (rats [2]) [mg/kg] | effect on MAO-B activity, in words (MAO-B) | effect on MAO-A activity, in words (MAO-A) | effectiveness when given after induction of head trauma, in words (rats [3]) | dose at which a maximal response was observed (rats [4]) [mg/kg] | effect on hypokinetic syndrome, big movements, in words (hypoxic rat [5]) | potentiation of stereotypic behavior induced by amphetamine, in words (hypoxic rat [6]) | passive avoidance performance, in words (hypoxic rat [7]) | % water in the brain (rats [8]) [%] | water maze performance versus hypoxia group, in words (hypoxia-lesioned rats) | potentiation of stereotypic behavior (lateral head movements), in words (hypoxic rat [9])
CC(=O)NC1CCc2ccc(F)cc21 (racemic) [Compound 22, (rac)-6-Fluoro-N-acetyl-1-aminoindan] | > 50 | 139 to 141 | > 100 | < 100 | < 50 |  |  |  |  |  |  |  |  |  | 
N[C@@H]1CCc2ccccc21 [R-AI, (R)-1-aminoindan] |  |  |  |  |  | can partially inhibit | does not have an effect on MAO-A activity | still effective even if given 3 hours after the induction of head trauma | 0.3 | corrected the hypokinetic syndrome | significant potentiation | improved their performance to control level | 81.5 ± 0.5 | tended towards superior performance | significant potentiation
